Consider 17 molecules from US6303603A, “3-oxo-2(H)-1,2,4-triazine derivatives as ligands of 5 HT1A receptors” (Pierre Fabre Medicament, priority 1997, dated 2001).

Counter-ions that a name gives are not always drawn. Like-named read-outs stand apart in the source and are kept apart here. Some results are limits rather than exact numbers.

For test [1], the target named is T1, 5-HT1A (Rattus norvegicus, UniProt P19327).
T1 sequence (P19327 1-422): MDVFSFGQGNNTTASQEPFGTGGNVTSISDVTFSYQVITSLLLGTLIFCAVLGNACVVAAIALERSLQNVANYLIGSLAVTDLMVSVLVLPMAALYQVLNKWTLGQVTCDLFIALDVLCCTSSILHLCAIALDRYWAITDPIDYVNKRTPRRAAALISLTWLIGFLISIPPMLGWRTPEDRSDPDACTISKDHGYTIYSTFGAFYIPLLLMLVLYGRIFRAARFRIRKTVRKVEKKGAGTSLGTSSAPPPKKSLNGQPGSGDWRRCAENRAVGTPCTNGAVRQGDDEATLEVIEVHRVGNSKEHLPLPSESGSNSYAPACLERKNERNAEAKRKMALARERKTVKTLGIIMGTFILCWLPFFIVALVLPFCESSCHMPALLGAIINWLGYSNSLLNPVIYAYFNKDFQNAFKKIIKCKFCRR
Briefly: Serotoninergic (5-HT) syndrome. The class given is in vivo, male rat (Sprague-Dawley). Details: carried out with the male rat (Sprague-Dawley); from tissue; host or cells: whole living rat (in vivo). Conditions: po, male rat. On the procedure:
The central activity of the compounds of the invention was evaluated by their ability to provoke the 5-HT syndrome, which is characterized by:
an alternating bending and stretching of the forepaws (reciprocal fore-paw treading: FPT)
the retraction of the lower lip (lower lip on: LLR)
a position or the ventral surface of the animal is incobtact with the ground and the hind paws extended (flat body posture: FBP).
The experiments on the evaluation of the 5-HT syndrome are carried out with the male rat (Sprague-Dawley) according to the technique described by F. C. Colpaert et al. (Drug. Dev. Res, 26, 21-48, 1992) and M. S. Kleven et al. (J.P.E.T., 282, 747-759, 1997).

Test [2] has as its target T1, 5-HT1A. The experiment in a line: Binding to the 5-HT1A receptor (displacement of [3H]8-OH-DPAT). Also noted: Brains from male Sprague-Dawley 180-200 g rats; tissue Iffa Credo, France (animals); host or cells: rat brain cortex; species or system rat (male Sprague-Dawley), brain cortex. Conditions: for Ki: read-out: pKi 5-HT1A (converted). On the procedure:
(§1) Binding to the 5-HT1A, D2 dopaminergic and α1-adrenergic receptors:
(§2) Brains from male Sprague-Dawley 180-200 g rats [Ico: OFA SD (I.O.P.S. Caw); Iffa Credo, France], maintained at -70° C., were used in all the studies.
(§3) The affinity of the products for the various receptors was determined by displacement of radioactive ligands under the conditions summarized in Table 1.
(§4) The reaction is halted by rapid filtration, under vacuum, through Whatman GF/B filters and the tubes are rinsed with 2×5 ml of Tris-HCl 50 mM, pH 7.4, buffer at 25° C. The radioactivity collected on the filter is analyzed by liquid scintillation after addition of 4 ml of liquid scintillant (Emulsifier Safe, Packard). All the experiments are carried out in triplicate.
(§5) The inhibition constants (Ki) of the products are estimated from the displacement experimentations by using the EBDA (equilibrium binding data analysis) Radlig version 4 nonlinear regression program (Biosoft, Cambridge, UK; McPherson, 1985).
(§6) The pKi (-log Ki) values are given in the form of the mean ± SEM of at least 3 experimentations (Table 2).

The target in another test is T2, D2 dopaminergic receptor (Rattus norvegicus, UniProt P61169).
T2 construct: Brains from male Sprague-Dawley 180-200 g rats; tissue Iffa Credo, France (animals); host or cells: rat brain striatum
T2 sequence (P61169 whole entry): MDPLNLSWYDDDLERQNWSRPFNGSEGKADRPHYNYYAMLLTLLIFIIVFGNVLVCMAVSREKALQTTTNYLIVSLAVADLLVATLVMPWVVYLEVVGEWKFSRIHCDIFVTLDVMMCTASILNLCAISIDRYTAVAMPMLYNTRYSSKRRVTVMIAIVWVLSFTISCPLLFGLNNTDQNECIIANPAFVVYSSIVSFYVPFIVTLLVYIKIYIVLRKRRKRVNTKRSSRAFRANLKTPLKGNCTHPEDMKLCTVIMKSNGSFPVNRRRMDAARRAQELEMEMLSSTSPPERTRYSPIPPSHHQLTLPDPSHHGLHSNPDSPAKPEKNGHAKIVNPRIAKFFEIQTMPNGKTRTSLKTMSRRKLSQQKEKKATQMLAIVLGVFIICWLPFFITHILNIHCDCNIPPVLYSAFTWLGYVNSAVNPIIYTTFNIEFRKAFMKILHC
The experiment in a line: Binding to the D2 dopaminergic receptor (displacement of [3H]YM-09151-2). Also noted: species or system rat (male Sprague-Dawley), brain striatum. Conditions: read-out: pKi D2 (converted). On the procedure:
as §1, §2, §3, §4, §5, §6

Test [3] in a line: Antidepressant activity: forced swimming test. Format: in vivo. Conditions: po, percentage of animals with significant decrease vs control (p<0.05), read-out: ED50 (decrease in the immobility time).
For a further test, the target named is α1-adrenergic receptor. Briefly: Binding to the α1-adrenergic receptor (displacement of [3H]Prazosin). Also noted: species or system rat (male Sprague-Dawley), brain cortex. The note with it: rat cortex, 30 min, 23 °C, mean of at least 3 experimentations. On the procedure:
as §1, §2, §3, §4, §5, §6
Experimental conditions for binding to the receptors
[^3 H] ligand Incubation binding
Concen- Tissue Temper- Concen-
Binding KD tration Concen- Time ature tration
site (nM) (nM) Type tration (min) (° C.) Product (μM)
Buffers: (A) Tris HCl 50 mM pH 7.4, pargyline 10 μM, CaCl2 4 mM,
0.1% ascorbic acid; (B) Tris HCl 50 mM pH 7.4, NaCl 120 mM, KCl 5 mM; (C)

The mark [4] stands for this setting: flat body posture (FBP), read-out: 5-HT syndrome ED50 FBP.
[5] abbreviates: lower lip retraction (LLR), read-out: 5-HT syndrome ED50 LLR.
The mark [6] stands for this setting: reciprocal fore-paw treading (FPT), read-out: 5-HT syndrome ED50 FPT.

For the molecule “5-[4-[4-(5-Chloro-2-methoxyphenyl)-piperazin-1-yl]butoxy]-2-methyl-2H- [1,2,4]triazin-3-one fumarate [Compound 17]”, at 5-HT1A [1] (flat body posture (FBP)), the “5-HT syndrome ED50 FBP” value turned out to be 0.31 mg/kg. Further, at 5-HT1A [1] (lower lip retraction (LLR)), the “5-HT syndrome ED50 LLR” value came to 0.08 mg/kg. The “5-HT syndrome ED50 FPT” value at 5-HT1A [1] (reciprocal fore-paw treading (FPT)) is 0.31 mg/kg. Besides, the “pKi 5-HT1A” value at 5-HT1A [2] ([3H]8-OH-DPAT, rat cortex, 30 min, 23 °C, mean of at least 3 experimentations) was found to be 9.89.

Regarding `Cn1ncc(OCCCCNC[C@@H]2COc3ccccc3O2)nc1=O` [Compound 21, (R)-5-[4-[(2,3-Dihydrobenzo[1,4]dioxin-2-ylmethyl)amino]butoxy)-2-methyl-2H-[1,2,4]triazin-3-one fumarate], the Ki on 5-HT1A [2] is 0.331 nM.

For `Cn1ncc(OCCCCN2CCN(c3nccc(Cl)n3)CC2)nc1=O` [Compound 6, 5-[4-[4-(4-Chloropyrimidin-2-yl)piperazin-1-yl]butoxy]-2-methyl-2H-[1,2,4]triazin-3-one], the Ki on D2 dopaminergic receptor is 1700 nM; at 5-HT1A [2], 0.209 nM. Besides, the ED50 on 5-HT1A [1] (setting [4]) was 0.08 mg/kg; at 5-HT1A [1] (setting [5]), 0.08 mg/kg; at 5-HT1A [1] (setting [6]) it was 0.08 mg/kg; in test [3], 0.63 mg/kg. Moreover, the “pKi α1” value at α1-adrenergic receptor is listed as 6.25.

Consider `Cn1ncc(OCC[C@H]2CC[C@@H]3CN(c4ncccn4)CCN3C2)nc1=O` (single isomer, unassigned) [Compound 26], for which the ED50 on 5-HT1A [1] (setting [4]) is less than 0.04 mg/kg; on 5-HT1A [1] (setting [5]), less than 0.04 mg/kg; at 5-HT1A [1] (setting [6]), 0.04 mg/kg; in test [3] it was 0.04 mg/kg. Moreover, the Ki on 5-HT1A [2] is 0.245 nM.

As to `Cn1ncc(OCCCCNCC2COc3ccccc3O2)nc1=O` (stereo not shown) [Compound 20, 5-[4-((2,3-Dihydrobenzo[1,4]dioxin-2-ylmethyl)amino]butoxyl-2-methyl-2H-[1,2,4]triazin-3-one fumarate], the Ki is 66.1 nM on D2 dopaminergic receptor and 0.107 nM on 5-HT1A [2]. The ED50 at 5-HT1A [1] (setting [4]) is 0.08 mg/kg; at 5-HT1A [1] (setting [5]), less than 0.04 mg/kg; on 5-HT1A [1] (setting [6]), 0.31 mg/kg. In addition, on α1-adrenergic receptor, the “pKi α1” value stood at 7.65.

Turning to `O=C(NCCN1CCN(c2cccc3c2OC[C@H](CO)O3)CC1)c1ccc(F)cc1` [Flesinoxan, reference compound], the 50% effective dose (ED50) in test [3] came out at 1.25 mg/kg. Moreover, the “pKi α1” value on α1-adrenergic receptor is 6.50.

As for `Cn1ncc(OCCCCN2CCN(c3cccc(Cl)c3)CC2)nc1=O` [Compound 16, 5-[4-[4-(3-Chlorophenyl)piperazin-1-yl]Butoxy]-2-methyl-2H-[1,2,4]Triazin-3-one fumarate], the Ki on 5-HT1A [2] is 0.0759 nM.

Take `Cc1ccnc(N2CCN(CCCCOc3cnn(C)c(=O)n3)CC2)n1.O=C(O)/C=C/C(=O)O` [Compound 2, 2-Methyl-5-[4-[4-(4-methylpyrimidin-2-yl)piperazin-1-yl]butoxy]-2H-[1,2,4]triazin-3-one fumarate]: the Ki on D2 dopaminergic receptor is 1740 nM; at 5-HT1A [2], 0.269 nM. Moreover, the ED50 at 5-HT1A [1] (setting [4]) is 0.08 mg/kg; on 5-HT1A [1] (setting [5]), 0.02 mg/kg; at 5-HT1A [1] (setting [6]) it was 0.08 mg/kg; in test [3], 0.04 mg/kg. The “pKi α1” value at α1-adrenergic receptor came to 6.11.

Take `Cn1ncc(OCCCCN2CCN(c3ncccn3)CC2)nc1=O` [Compound 1, 2-Methyl-5-[4-(4-pyrimidin-2-yl-piperazin-1-yl)butoxy]-2H-[1,2,4]triazin-3-one]: the Ki at D2 dopaminergic receptor was 1580 nM; at 5-HT1A [2] it was 0.676 nM. Further, the ED50 at 5-HT1A [1] (setting [4]) came out at 0.08 mg/kg; at 5-HT1A [1] (setting [5]) it was 0.02 mg/kg; on 5-HT1A [1] (setting [6]), 0.08 mg/kg. For the same molecule, the “pKi α1” value at α1-adrenergic receptor stood at 6.25.

As to `O=C1CC2(CCCC2)CC(=O)N1CCCCN1CCN(c2ncccn2)CC1` [Buspirone, reference compound], the ED50 on 5-HT1A [1] (setting [6]) is greater than 40 mg/kg; in test [3], greater than 160 mg/kg. Further, the “pKi α1” value on α1-adrenergic receptor worked out at 6.19.

Consider `Cn1ncc(OCCCCNC[C@H]2COc3ccccc3O2)nc1=O` [Compound 22, (S)-5-[4-[(2,3-Dihydrobenzo[1,4]dioxin-2-ylmethyl)amino]butoxy]-2-methyl-2H-[1,2,4]triazin-3-one fumarate], for which the Ki at 5-HT1A [2] was 0.0339 nM.

With `Cn1ncc(OCC[C@H]2CC[C@@H]3CN(c4ncccn4)CCN3C2)nc1=O` (relative stereo) [Compound 24, trans-2-Methyl-5-[2-(2-pyrimidin-2-yl-octahydropyrido[1,2-a]pyrazin-7-yl)ethoxy]-2H-[1,2,4]triazin-3-one], the Ki was 2880 nM on D2 dopaminergic receptor and 0.525 nM at 5-HT1A [2]. Further, the 50% effective dose (ED50) was 0.08 mg/kg on 5-HT1A [1] (setting [4]), less than 0.04 mg/kg on 5-HT1A [1] (setting [5]), 0.08 mg/kg on 5-HT1A [1] (setting [6]) and 0.04 mg/kg in test [3]. In addition, at α1-adrenergic receptor, the “pKi α1” value amounted to 6.35.

`COc1cccnc1N1CCN(CCCCOc2cnn(C)c(=O)n2)CC1` [Compound 15, 5-[4-[4-(3-Methoxypyridin-2-yl)piperazin-1-yl]butoxy]-2-methyl-2H-[1,2,4]triazin-3-one fumarate]: on 5-HT1A [2], the Ki was 0.263 nM.

Regarding `COc1ccc(Cl)cc1N1CCN(CCCCOc2cnn(C)c(=O)n2)CC1` [Compound 19, 5-[4-[4-(5-Chloro-2-methoxyphenyl)-piperazin-1-yl]butoxyl-2-methyl-2H-[1,2,4]triazin-3-one fumarate], the Ki on D2 dopaminergic receptor was 15.1 nM; on 5-HT1A [2], 0.309 nM. The “pKi α1” value on α1-adrenergic receptor is given as 8.21.

On to `Cn1ncc(OCCCCN2CCN(c3ncc(F)cn3)CC2)nc1=O` [Compound 7, 5-[4-[4-(5-Fluoropyrimidin-2-yl)piperazin-1-yl]butoxy]-2-methyl-2H-[1,2,4]triazin-3-one], for which the results for the ED50 at 5-HT1A [1] (setting [4]), at 5-HT1A [1] (setting [5]) and at 5-HT1A [1] (setting [6]) were 0.31 mg/kg, 0.08 mg/kg and 0.31 mg/kg, respectively. At 5-HT1A [2], the Ki is 0.912 nM.

For the molecule `Cc1cc(C)nc(N2CCN(CCCCOc3cnn(C)c(=O)n3)CC2)n1.O=C(O)/C=C/C(=O)O` [Compound 3, 5-[4-[4-(4,6-Dimethylpyrimidin-2-yl)piperazin-1-yl]butoxy]-2-methyl-2H-[1,2,4]triazin-3-one fumarate], the Ki was 1120 nM at D2 dopaminergic receptor and 0.275 nM at 5-HT1A [2]. Besides, the ED50 at 5-HT1A [1] (setting [4]), at 5-HT1A [1] (setting [5]) and at 5-HT1A [1] (setting [6]) was 0.08 mg/kg in each case. Also, the “pKi α1” value on α1-adrenergic receptor is 6.01.

Regarding `COc1ccnc(N2CCN(CCCCOc3cnn(C)c(=O)n3)CC2)n1` [Compound 4, 5-[4-[4-(4-Methoxypyrimnidin-2-yl)piperazin-1-yl]butoxy]-2-methyl-2H-[1,2,4]triazin-3-one fumarate], the Ki was 2240 nM at D2 dopaminergic receptor and 0.138 nM on 5-HT1A [2]. The ED50 is 0.08 mg/kg on 5-HT1A [1] (setting [4]), less than 0.04 mg/kg at 5-HT1A [1] (setting [5]) and 0.08 mg/kg on 5-HT1A [1] (setting [6]). Also, on α1-adrenergic receptor, the “pKi α1” value is given as 6.74.
